Our source for the IC50 values is patent US11685732B2, “MYST family histone acetyltransferase inhibitors” (Epizyme, Inc., priority 2017, dated 2023).

Experiment [1] addresses KAT-7 (Homo sapiens (Human), UniProt O95251). In words: KAT-7 biochemical inhibition assay (SAMDI mass spectrometry). How it is done:
(§1) KAT-7. Enzyme assay buffer was 50 mM Tris pH 8.0, 0.002% Tween20, 0.005% bovine skin gelatin, and 1 mM dithiothreitol (DTT). For determination of IC50 values, compounds were serially diluted with 2% (v/v) DMSO in the final reaction, pre-incubating each dilution of each compound with 40 μL of assay buffer containing KAT-7 enzyme (6 nM final concentration). 10 μL of assay buffer containing 1 μM peptide substrate and 2 μM acetyl coenzyme A (final concentrations) was added. Reactions (50 μL total) were then carried out at 25° C. for 120 minutes. Reactions were terminated by the addition of 0.5% formic acid (final concentration), and a sample of each reaction was analyzed by SAMDI Tech, Inc. (Chicago, Ill.) using self-assembled monolayer desorption/ionization time-of-flight mass spectrometry (Mrksich, M. (2008) Mass spectrometry of self-assembled monolayers: a new tool for molecular surface science. ACS Nano 2, 7-18).

Experiment [2] has as its target KAT-6A (Homo sapiens (Human), UniProt Q92794). Description: KAT-6A biochemical inhibition assay (SAMDI mass spectrometry). The method, boiled down: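 IC50 values came from SAMDI time-of-flight mass spectrometry after formic acid quench (0.5% final). Acetylation ran 90 min at 25 °C with 1 μM acetyl coenzyme A and 1 μM peptide substrate, following compound pre-incubation with 12.5 nM KAT-6A in Tris buffer pH 8.0 containing DTT, 2% DMSO final.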

In experiment [3] the target is KAT-8 (Homo sapiens (Human), UniProt Q9H7Z6). In words: KAT-8 biochemical inhibition assay (SAMDI mass spectrometry). As to the method: as §1, with “KAT-8. Enzyme” for “KAT-7. Enzyme”, “containing KAT-8” for “containing KAT-7”, “enzyme (12.5” for “enzyme (6”, “and 5” for “and 2”, “for 90” for “for 120”
Experiment [4] deals with KAT-5 (Homo sapiens (Human), UniProt Q92993). In words: KAT-5 biochemical inhibition assay (SAMDI mass spectrometry). The method, boiled down: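 Acetylation of 1 μM peptide by 9 nM enzyme with 0.5 μM acetyl-CoA (final) was run 90 min at 25° C in Tris pH 8.0 buffer with DTT, after compound preincubation at 2% DMSO. Formic acid stopped the reaction, and product was quantified by SAMDI mass spectrometry to derive IC50.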
Sequence of KAT-5 (Q92993 other isoform, or with tags, fused parts or gaps): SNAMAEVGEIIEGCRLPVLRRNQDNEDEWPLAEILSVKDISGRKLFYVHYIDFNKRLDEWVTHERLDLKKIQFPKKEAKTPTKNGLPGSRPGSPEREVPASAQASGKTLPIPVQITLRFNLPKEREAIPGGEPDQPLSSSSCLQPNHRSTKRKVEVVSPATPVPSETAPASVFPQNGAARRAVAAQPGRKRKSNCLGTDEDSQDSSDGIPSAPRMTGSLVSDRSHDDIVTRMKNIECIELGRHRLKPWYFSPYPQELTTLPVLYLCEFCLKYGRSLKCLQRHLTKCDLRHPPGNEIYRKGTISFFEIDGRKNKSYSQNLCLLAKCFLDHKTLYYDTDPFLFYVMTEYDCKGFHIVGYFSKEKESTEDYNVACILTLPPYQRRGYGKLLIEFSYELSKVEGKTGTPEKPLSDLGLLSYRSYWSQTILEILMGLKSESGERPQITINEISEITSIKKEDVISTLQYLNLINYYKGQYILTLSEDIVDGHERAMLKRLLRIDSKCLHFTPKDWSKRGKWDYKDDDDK

Sequence of KAT-6A (Q92794 other isoform, or with tags, fused parts or gaps): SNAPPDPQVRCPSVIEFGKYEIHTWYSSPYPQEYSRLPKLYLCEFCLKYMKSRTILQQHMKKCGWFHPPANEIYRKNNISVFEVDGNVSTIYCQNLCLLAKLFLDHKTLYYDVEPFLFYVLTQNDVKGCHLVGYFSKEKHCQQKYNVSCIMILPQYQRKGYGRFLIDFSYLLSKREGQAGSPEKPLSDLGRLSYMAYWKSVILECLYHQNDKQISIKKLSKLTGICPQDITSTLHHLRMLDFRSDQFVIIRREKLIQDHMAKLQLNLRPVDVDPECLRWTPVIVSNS
Sequence of KAT-7 (O95251 other isoform, or with tags, fused parts or gaps): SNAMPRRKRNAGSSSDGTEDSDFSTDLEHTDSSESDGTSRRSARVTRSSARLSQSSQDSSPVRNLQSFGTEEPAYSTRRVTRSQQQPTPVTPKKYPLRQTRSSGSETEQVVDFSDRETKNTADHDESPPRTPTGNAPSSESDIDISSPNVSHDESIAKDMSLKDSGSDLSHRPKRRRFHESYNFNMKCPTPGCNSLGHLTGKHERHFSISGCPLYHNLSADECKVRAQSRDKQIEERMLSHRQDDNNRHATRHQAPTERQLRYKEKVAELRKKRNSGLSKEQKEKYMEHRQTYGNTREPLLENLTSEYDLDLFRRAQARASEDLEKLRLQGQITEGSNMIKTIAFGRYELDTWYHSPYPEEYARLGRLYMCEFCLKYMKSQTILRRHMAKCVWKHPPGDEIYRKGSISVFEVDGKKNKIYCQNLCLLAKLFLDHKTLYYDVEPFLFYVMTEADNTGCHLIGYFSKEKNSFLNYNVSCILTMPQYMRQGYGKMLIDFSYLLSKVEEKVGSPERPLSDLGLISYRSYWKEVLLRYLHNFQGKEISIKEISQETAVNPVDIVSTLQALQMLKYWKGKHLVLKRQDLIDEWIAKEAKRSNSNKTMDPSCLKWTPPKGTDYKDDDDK
Sequence of KAT-8 (Q9H7Z6 other isoform, or with tags, fused parts or gaps): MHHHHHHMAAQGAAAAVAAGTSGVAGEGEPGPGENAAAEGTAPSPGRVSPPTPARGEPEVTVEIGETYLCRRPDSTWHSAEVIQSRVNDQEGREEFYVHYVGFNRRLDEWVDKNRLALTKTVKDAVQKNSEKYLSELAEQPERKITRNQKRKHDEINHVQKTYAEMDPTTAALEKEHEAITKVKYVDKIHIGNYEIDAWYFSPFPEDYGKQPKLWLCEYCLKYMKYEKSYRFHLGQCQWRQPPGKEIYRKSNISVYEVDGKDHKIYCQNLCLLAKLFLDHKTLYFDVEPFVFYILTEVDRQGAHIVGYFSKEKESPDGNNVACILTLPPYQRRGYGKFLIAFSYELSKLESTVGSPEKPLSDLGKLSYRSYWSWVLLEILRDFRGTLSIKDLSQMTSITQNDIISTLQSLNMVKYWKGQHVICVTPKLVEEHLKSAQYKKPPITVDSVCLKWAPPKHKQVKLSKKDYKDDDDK

In the case of `Cn1cnc(-c2cc(Cl)c(F)c(C(=O)NNS(=O)(=O)C3CCN(C(=O)OC(C)(C)C)CC3)c2)c1` [Compound I-3], the IC50 in experiment [1] was below 10 µM; in experiment [2] it was below 10 µM; in experiment [3], above 100 µM; in experiment [4] it was below 10 µM.

As for `Cn1ccc(-c2cc(Cl)c(F)c(C(=O)NNS(=O)(=O)CC3CCCCC3)c2)n1` [Compound I-4], the IC50 in experiment [1] is below 10 µM; in experiment [2], below 10 µM; in experiment [3] it was 50 to 100 µM; in experiment [4], below 10 µM.

As to `O=C(NNS(=O)(=O)CC1CCCCC1)c1cc(-c2ccccn2)cc(Cl)c1F` [Compound I-5], the IC50 was below 10 µM in experiment [1], below 10 µM in experiment [2], above 100 µM in experiment [3] and below 10 µM in experiment [4].

`Cn1ccc(-c2cc(Cl)c(F)c(C(=O)NNS(=O)(=O)CC3CCOCC3)c2)n1` [Compound I-6]: the half-inhibitory concentration (IC50) in experiment [1] is 10 to 50 µM; in experiment [2], below 10 µM; in experiment [3], above 100 µM; in experiment [4] it was 10 to 50 µM.

For `Cn1cnc(-c2cc(Cl)c(F)c(C(=O)NNS(=O)(=O)CC3CCCNC3)c2)c1` (centres unmarked) [Compound I-7], the IC50 is below 10 µM in experiment [1], 50 to 100 µM in experiment [2], above 100 µM in experiment [3] and 10 to 50 µM in experiment [4].

With `Cn1cc(-c2cc(Cl)c(F)c(C(=O)NNS(=O)(=O)C3CCOCC3)c2)nc1Cl` [Compound I-8], the IC50 in experiment [1] was 10 to 50 µM; in experiment [2], 10 to 50 µM; in experiment [3] it was above 100 µM; in experiment [4], above 100 µM.

For the molecule `Cn1cnc(-c2cc(Cl)c(F)c(C(=O)NNS(=O)(=O)C3CCOCC3)c2)c1` [Compound I-9], the IC50 is below 10 µM in experiment [1], 10 to 50 µM in experiment [2], above 100 µM in experiment [3] and 10 to 50 µM in experiment [4].

In the case of `CC(=O)N1CCCC(CS(=O)(=O)NNC(=O)c2cc(-c3cn(C)cn3)cc(Cl)c2F)C1` (centres unmarked) [Compound I-10], the IC50 in experiment [1] was below 10 µM; in experiment [2], below 10 µM; in experiment [3], above 100 µM; in experiment [4], below 10 µM.

For `Cn1c(Cl)nc(-c2cc(Cl)c(F)c(C(=O)NNS(=O)(=O)C3CCOCC3)c2)c1Cl` [Compound I-11], the IC50 is 50 to 100 µM in experiment [1], 10 to 50 µM in experiment [2], above 100 µM in experiment [3] and 50 to 100 µM in experiment [4].

With `Cn1cnc(-c2cc(Cl)c(F)c(C(=O)NNS(=O)(=O)C3CCC3)c2)c1` [Compound I-12], the IC50 in experiment [1] was below 10 µM; in experiment [2] it was 50 to 100 µM; in experiment [3], above 100 µM; in experiment [4], 50 to 100 µM.

For `Cn1cnc(-c2cc(Cl)c(F)c(C(=O)NNS(=O)(=O)CC3CCCN(C(=O)C4CCC4)C3)c2)c1` (centres unmarked) [Compound I-13], the IC50 in experiment [1] is below 10 µM; in experiment [2], below 10 µM; in experiment [3], above 100 µM; in experiment [4], below 10 µM.

In the case of `CC(C)S(=O)(=O)NNC(=O)c1cc(-c2cn(C)cn2)cc(Cl)c1F` [Compound I-14], the IC50 was 10 to 50 µM in experiment [1], above 100 µM in experiment [2], above 100 µM in experiment [3] and 50 to 100 µM in experiment [4].

Turning to `Cn1cnc(-c2cc(Cl)c(F)c(C(=O)NNS(=O)(=O)C3CCCC3)c2)c1` [Compound I-15], the IC50 was below 10 µM in experiment [1], 50 to 100 µM in experiment [2], above 100 µM in experiment [3] and 10 to 50 µM in experiment [4].

On to `Cn1cc(-c2cc(Cl)c(F)c(C(=O)NNS(=O)(=O)CC3CCOCC3)c2)cn1` [Compound I-16], for which the IC50 was below 10 µM in experiment [1], above 100 µM in experiment [2], above 100 µM in experiment [3] and 10 to 50 µM in experiment [4].

Regarding `Cc1ccnc(-c2cc(Cl)c(F)c(C(=O)NNS(=O)(=O)CC3CCOCC3)c2)c1` [Compound I-17], the IC50 is below 10 µM in experiment [1], below 10 µM in experiment [2], above 100 µM in experiment [3] and below 10 µM in experiment [4].

For the molecule `Cn1cnc(-c2cc(Cl)c(F)c(C(=O)NNS(=O)(=O)C3CC3)c2)c1` [Compound I-19], the IC50 in experiment [1] is 10 to 50 µM; in experiment [2], above 100 µM; in experiment [3] it was above 100 µM; in experiment [4], above 100 µM.

For the molecule `Cn1cnc(-c2cc(Cl)c(F)c(C(=O)NNS(=O)(=O)CC3CCCC3)c2)c1` [Compound I-20], the IC50 in experiment [1] is below 10 µM; in experiment [2], below 10 µM; in experiment [3] it was 50 to 100 µM; in experiment [4] it was below 10 µM.

In the case of `Cn1cnc(-c2cc(Cl)c(F)c(C(=O)NNS(C)(=O)=O)c2)c1` [Compound I-22], the IC50 was below 10 µM in experiment [1], 10 to 50 µM in experiment [2], above 100 µM in experiment [3] and above 100 µM in experiment [4].

On to `CCS(=O)(=O)NNC(=O)c1cc(-c2cn(C)cn2)cc(Cl)c1F` [Compound I-25], for which the IC50 is below 10 µM in experiment [1], 50 to 100 µM in experiment [2], above 100 µM in experiment [3] and 10 to 50 µM in experiment [4].

`Cc1nc(-c2cc(Cl)c(F)c(C(=O)NNS(=O)(=O)C3CCCCC3)c2)cn1C` [Compound I-26]: the IC50 in experiment [1] was below 10 µM; in experiment [2] it was 10 to 50 µM; in experiment [3], above 100 µM; in experiment [4], below 10 µM.

With `Cn1cnc(-c2cc(Cl)c(F)c(C(=O)NNS(=O)(=O)C3CCOC3)c2)c1` (centres unmarked) [Compound I-27], the IC50 was below 10 µM in experiment [1], 50 to 100 µM in experiment [2], above 100 µM in experiment [3] and 10 to 50 µM in experiment [4].

Regarding `CCn1cnc(-c2cc(Cl)c(F)c(C(=O)NNS(=O)(=O)CC3CCCCC3)c2)c1C` [Compound I-28], the IC50 in experiment [1] is below 10 µM; in experiment [2], above 100 µM; in experiment [3] it was above 100 µM; in experiment [4] it was 10 to 50 µM.

Turning to `Cc1ncc(-c2cc(Cl)c(F)c(C(=O)NNS(=O)(=O)CC3CCCCC3)c2)n1C` [Compound I-29], the IC50 in experiment [1] is 50 to 100 µM; in experiment [2] it was above 100 µM; in experiment [3], above 100 µM; in experiment [4] it was 10 to 50 µM.

Consider `Cc1ncc(-c2cc(Cl)c(F)c(C(=O)NNS(=O)(=O)CC3CCOCC3)c2)n1C` [Compound I-30], for which the IC50 in experiment [1], in experiment [2], in experiment [3] and in experiment [4] was above 100 µM in each case.

On to `Cn1cnc(-c2cc(Cl)c(F)c(C(=O)NNS(=O)(=O)CC3CCC3)c2)c1` [Compound I-31], for which the half-maximal inhibitory concentration (IC50) is below 10 µM in experiment [1], below 10 µM in experiment [2], 10 to 50 µM in experiment [3] and below 10 µM in experiment [4].

Take `Cn1cnc(-c2cc(Cl)c(F)c(C(=O)NNS(=O)(=O)CC3CCCN(C(=O)C4CCOCC4)C3)c2)c1` (centres unmarked) [Compound I-32]: the IC50 is below 10 µM in experiment [1], below 10 µM in experiment [2], above 100 µM in experiment [3] and below 10 µM in experiment [4].

Turning to `Cc1nc(-c2cc(Cl)c(F)c(C(=O)NNS(=O)(=O)CC3CCOCC3)c2)cn1C` [Compound I-33], the IC50 was below 10 µM in experiment [1], 10 to 50 µM in experiment [2], above 100 µM in experiment [3] and 10 to 50 µM in experiment [4].

`O=C(NNS(=O)(=O)CC1CCCCC1)c1cc(-n2cccn2)cc(Cl)c1F` [Compound I-34]: the IC50 is 10 to 50 µM in experiment [1], below 10 µM in experiment [2], above 100 µM in experiment [3] and below 10 µM in experiment [4].

In the case of `COCC(=O)N1CCCC(CS(=O)(=O)NNC(=O)c2cc(-c3cn(C)cn3)cc(Cl)c2F)C1` (centres unmarked) [Compound I-35], the IC50 was below 10 µM in experiment [1], below 10 µM in experiment [2], 10 to 50 µM in experiment [3] and below 10 µM in experiment [4].

As for `Cc1cnn(-c2cc(Cl)c(F)c(C(=O)NNS(=O)(=O)CC3CCOCC3)c2)c1` [Compound I-36], the IC50 in experiment [1] is below 10 µM; in experiment [2], below 10 µM; in experiment [3], above 100 µM; in experiment [4] it was 10 to 50 µM.

`Cc1nc(-c2cc(Cl)c(F)c(C(=O)NNS(=O)(=O)C3CCOCC3)c2)cn1C` [Compound I-37]: the IC50 in experiment [1] is 10 to 50 µM; in experiment [2] it was 10 to 50 µM; in experiment [3], above 100 µM; in experiment [4], 50 to 100 µM.

In the case of `CCn1cnc(C)c1-c1cc(Cl)c(F)c(C(=O)NNS(=O)(=O)CC2CCCCC2)c1` [Compound I-40], the IC50 in experiment [1], in experiment [2], in experiment [3] and in experiment [4] was above 100 µM each time.
